Test results as given in ChEMBL document CHEMBL1158437, “The discovery of the potent aurora inhibitor MK-0457 (VX-680)” (Bioorg Med Chem Lett, 2009).
Values after ≈ are worked out from the molar mass of the structure shown. Active and inactive are the calls of the source. The rule behind the calls is not given here.

How the values were obtained:
Aurora kinase A = molecular target: T1, Aurora kinase A (Homo sapiens, UniProt O14965)
T1 sequence (O14965 whole entry): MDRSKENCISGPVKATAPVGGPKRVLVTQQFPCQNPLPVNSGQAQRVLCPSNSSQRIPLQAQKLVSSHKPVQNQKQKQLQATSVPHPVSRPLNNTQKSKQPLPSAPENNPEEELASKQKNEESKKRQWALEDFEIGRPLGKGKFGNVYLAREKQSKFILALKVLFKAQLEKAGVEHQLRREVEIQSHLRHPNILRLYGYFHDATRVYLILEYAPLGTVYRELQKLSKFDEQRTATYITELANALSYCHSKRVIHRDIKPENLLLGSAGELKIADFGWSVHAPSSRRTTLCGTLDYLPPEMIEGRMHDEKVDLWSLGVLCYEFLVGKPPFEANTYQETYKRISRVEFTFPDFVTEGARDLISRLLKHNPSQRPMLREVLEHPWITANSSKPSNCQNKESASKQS
Description: Inhibition of Aurora-A by coupled assay

Aurora kinase B [1] = molecular target: T2, Aurora kinase B (Homo sapiens, UniProt Q96GD4); assay: Inhibition of Aurora-B
T2 sequence (Q96GD4 whole entry): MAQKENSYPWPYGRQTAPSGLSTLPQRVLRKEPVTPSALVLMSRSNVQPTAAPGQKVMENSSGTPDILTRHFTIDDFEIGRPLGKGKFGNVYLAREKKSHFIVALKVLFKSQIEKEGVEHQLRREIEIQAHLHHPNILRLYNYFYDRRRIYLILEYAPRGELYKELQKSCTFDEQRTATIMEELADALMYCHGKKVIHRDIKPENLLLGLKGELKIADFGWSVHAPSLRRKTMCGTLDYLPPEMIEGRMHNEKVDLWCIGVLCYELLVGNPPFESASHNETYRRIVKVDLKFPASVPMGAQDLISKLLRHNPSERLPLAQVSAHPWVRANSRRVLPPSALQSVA

COLO 205 [2] = assay: Antiproliferative activity against human COLO205 cells by [3H]thymidine uptake assay; type: functional, cell-based; conditions: for Activity: TDE = time-dependent effect
[3] = Aqueous solubility at pH 7.4; type: physicochemical; conditions: buffer
Aurora kinase B [4] = molecular target: T2, Aurora kinase B; assay: Inhibition of Aurora-B by time dependent kinetic study
[5] = Half life in rat; type: ADME, organism-based; conditions: in vivo
Aurora kinase C = molecular target: T3, Aurora kinase C (Homo sapiens, UniProt Q9UQB9); assay: Inhibition of Aurora-C
T3 sequence (Q9UQB9 whole entry): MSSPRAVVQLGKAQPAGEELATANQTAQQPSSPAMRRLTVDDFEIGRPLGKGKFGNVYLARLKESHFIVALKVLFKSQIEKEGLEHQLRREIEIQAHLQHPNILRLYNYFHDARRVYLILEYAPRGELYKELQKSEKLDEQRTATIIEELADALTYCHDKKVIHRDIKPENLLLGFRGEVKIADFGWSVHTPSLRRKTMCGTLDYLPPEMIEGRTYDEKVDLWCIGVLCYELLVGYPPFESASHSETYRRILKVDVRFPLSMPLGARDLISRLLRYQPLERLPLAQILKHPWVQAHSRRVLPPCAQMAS

[6] = Bioavailability in rat; type: ADME, organism-based; conditions: in vivo
[7] = molecular target: Proto-oncogene tyrosine-protein kinase Src (Homo sapiens, UniProt P12931); assay: Inhibition of Src
Chain of Proto-oncogene tyrosine-protein kinase Src (P12931 2-536 limits assumed): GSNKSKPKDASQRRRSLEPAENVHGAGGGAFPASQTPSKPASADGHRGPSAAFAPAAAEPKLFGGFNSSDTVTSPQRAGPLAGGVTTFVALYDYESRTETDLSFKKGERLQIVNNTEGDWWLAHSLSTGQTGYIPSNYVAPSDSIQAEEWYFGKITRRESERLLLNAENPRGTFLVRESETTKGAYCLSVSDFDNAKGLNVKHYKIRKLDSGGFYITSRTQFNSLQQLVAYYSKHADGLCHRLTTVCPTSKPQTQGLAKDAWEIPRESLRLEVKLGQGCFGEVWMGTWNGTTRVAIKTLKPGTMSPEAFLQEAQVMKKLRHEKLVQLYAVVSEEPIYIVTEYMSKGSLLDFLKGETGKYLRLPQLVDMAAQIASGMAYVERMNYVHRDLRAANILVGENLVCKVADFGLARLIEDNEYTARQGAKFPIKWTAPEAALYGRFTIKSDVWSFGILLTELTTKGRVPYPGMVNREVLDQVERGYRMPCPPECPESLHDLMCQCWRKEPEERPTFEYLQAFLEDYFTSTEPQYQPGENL

[8] = molecular target: Glycogen synthase kinase-3 beta (Homo sapiens, UniProt P49841)
Chain of Glycogen synthase kinase-3 beta (P49841 whole entry, the tested form may be a part): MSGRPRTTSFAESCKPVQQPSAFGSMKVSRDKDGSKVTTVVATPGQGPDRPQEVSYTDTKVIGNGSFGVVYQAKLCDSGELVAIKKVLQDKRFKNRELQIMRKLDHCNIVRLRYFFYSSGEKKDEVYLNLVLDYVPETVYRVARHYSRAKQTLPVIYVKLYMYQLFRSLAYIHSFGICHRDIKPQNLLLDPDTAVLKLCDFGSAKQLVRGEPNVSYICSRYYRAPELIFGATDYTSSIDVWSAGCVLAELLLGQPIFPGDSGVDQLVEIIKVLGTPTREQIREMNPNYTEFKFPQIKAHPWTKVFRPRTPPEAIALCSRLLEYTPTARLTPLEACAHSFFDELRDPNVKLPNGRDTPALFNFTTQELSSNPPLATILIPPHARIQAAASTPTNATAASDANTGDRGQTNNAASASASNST

COLO 205 [9] = assay: Induction of apoptosis in human COLO205 cells assessed as DNA fragmentation by ELISA; type: functional, cell-based
COLO 205 [10] = assay: Induction of apoptosis in human COLO205 cells by annexin V binding; type: functional, cell-based
MCF7 = assay: Antitumor activity against human MCF7 cells xenograft model assessed as tumor growth inhibition at 300 mg/kg, po bid; type: functional; conditions: read-out: GI
COLO 205 [11] = assay: Cytotoxicity against human COLO205 cells after 48 hrs by MTS assay; type: functional, cell-based; conditions: COLO 205, 48 h
COLO 205 [12] = assay: Induction of apoptosis in human COLO205 cells by TUNEL staining; type: functional, cell-based

Ki (Aurora kinase A) [nM] | Ki (Aurora kinase B [1]) [nM] | IC50 (COLO 205 [2]) [nM] | SMILES | also measured
1.6 | 8 | – | CCC(=O)Nc1ccc(Sc2nc(Nc3cc(C)n[nH]3)cc(N3CCCCC3)n2)cc1 | –
– | – | 19 | Cc1cc(Nc2cc(N3CCN(C)CC3)nc(Sc3ccc(NC(=O)C4CC4)cc3)n2)n[nH]1 [TOZASERTIB] | Activity (COLO 205 [2]): tde
2.4 | 83 | – | CC(=O)Nc1ccc(Sc2nc(Nc3cc(C)[nH]n3)cc(-c3ccccc3)n2)cc1 | –
1.3 | 11 | – | CCC(=O)Nc1ccc(Sc2nc(Nc3cc(C)n[nH]3)cc(N3CCN(C(C)(C)C)CC3)n2)cc1 | solubility [3]: 221 µg/mL (≈ 446 µM); Ki (Aurora kinase B [4]): 0.8 nM; half-life [5]: 8 h
– | – | – | CCC(=O)Nc1ccc(Sc2nc(Nc3cc(C)[nH]n3)cc(N3CCN(C4CC4)CC3)n2)cc1 | Activity (COLO 205 [2]): tde
– | > 1100 | 2200 | CC(=O)Nc1ccc(Sc2nc(Nc3cc[nH]n3)c3ccccc3n2)cc1 | –
– | 590 | – | Cc1cc(Nc2nc(Sc3ccccc3)nc3ccccc23)n[nH]1 | –
86 | 207 | 4050 | CC(=O)Nc1ccc(Sc2nccc(Nc3cc(C)[nH]n3)n2)cc1 | solubility [3]: 13.8 µg/mL (≈ 40.5 µM)
18 | 220 | 2000 | CC(=O)Nc1ccc(Sc2nc(C)cc(Nc3cc(C)n[nH]3)n2)cc1 | solubility [3]: < 1 µg/mL
3.9 | 52 | 470 | CCC(=O)Nc1ccc(Sc2nc(Nc3cc(C)[nH]n3)cc(-c3cccnc3)n2)cc1 | solubility [3]: < 1 µg/mL
– | – | – | CCC(=O)Nc1ccc(Sc2nc(Nc3cc(C)[nH]n3)cc(N3CCN(C(C)(C)C)CC3)n2)cc1 | Activity (COLO 205 [2]): tde
– | – | – | CC(=O)Nc1ccc(Sc2nc(Nc3cc(C)[nH]n3)c3ccccc3n2)cc1 | Ki (Aurora kinase C): 11 nM; bioavailability [6]: 40%; half-life [5]: 1.5 h
– | 57 | 830 | CCC(=O)Nc1ccc(Sc2nc(Nc3cc(C)[nH]n3)c3ccccc3n2)cc1 | –
– | 675 | – | Cc1cc(Nc2nc(Sc3cccc(Cl)c3Cl)nc3ccccc23)n[nH]1 | –
1.7 | 14 | – | CCC(=O)Nc1ccc(Sc2nc(Nc3cc(C)n[nH]3)cc(N3CCOCC3)n2)cc1 | solubility [3]: 5.4 µg/mL (≈ 12.3 µM)
< 3 | 49 | 1000 | CCC(=O)Nc1ccc(Sc2nc(Nc3cc(C)[nH]n3)cc(-c3ccncc3)n2)cc1 | –
– | 995 | – | COc1ccccc1Sc1nc(Nc2cc(C)[nH]n2)c2ccccc2n1 | Ki [7]: > 1000 nM
< 1 | 25 | – | CCC(=O)Nc1ccc(Sc2nc(Nc3cc(C)n[nH]3)cc(N3CCN(CC)CC3)n2)cc1 | solubility [3]: 114 µg/mL (≈ 245 µM)
– | 120 | – | COc1ccc(Sc2nc(Nc3cc(C)[nH]n3)c3ccccc3n2)cc1OC | –
– | 51 | 910 | Cc1cc(Nc2nc(Sc3ccc(NC(=O)C4CC4)cc3)nc3ccccc23)n[nH]1 | –
< 1 | 9.5 | – | CCC(=O)Nc1ccc(Sc2nc(Nc3cc(C)n[nH]3)cc(N3CCN(C4CC4)CC3)n2)cc1 | solubility [3]: 12.8 µg/mL (≈ 26.7 µM)
– | 230 | 780 | Cc1cc(Nc2nc(Sc3ccc(NS(C)(=O)=O)cc3)nc3ccccc23)n[nH]1 | –
– | > 1100 | – | Cc1cc(Nc2nc(Sc3ccc(Cl)cc3Cl)nc3ccccc23)n[nH]1 | –

Ki (Aurora kinase A) [nM] | Ki (Aurora kinase B [1]) [nM] | IC50 (COLO 205 [2]) [nM] | SMILES | also measured
3.7 | 18 | – | CCC(=O)Nc1ccc(Sc2nc(Nc3cc(C)n[nH]3)cc(N3CCNCC3)n2)cc1 | solubility [3]: 296 µg/mL (≈ 675 µM)
– | > 1100 | – | Cc1cc(Nc2nc(Sc3c(Cl)cccc3Cl)nc3ccccc23)n[nH]1 | –
– | 250 | 2870 | Cc1cc(Nc2nc(Sc3ccc(NC(=O)OC(C)(C)C)cc3)nc3ccccc23)n[nH]1 | Ki [7]: > 3000 nM; Ki [8]: > 4000 nM
– | – | – | CC(=O)Nc1ccc(Sc2nc(Nc3cc(C)n[nH]3)c3ccccc3n2)cc1 | Activity (COLO 205 [9]): Active; Activity (COLO 205 [10]): Active; inhibition in vivo at 300 mg/kg (MCF7): 50%; IC50 (COLO 205 [11]): 8500 nM; Activity (COLO 205 [12]): Active
10 | 115 | 2000 | CCC(=O)Nc1ccc(Sc2nc(Nc3cc(C)[nH]n3)cc(C(C)(C)C)n2)cc1 | solubility [3]: 11.2 µg/mL (≈ 27.3 µM)
1.6 | 20 | – | CCC(=O)Nc1ccc(Sc2nc(Nc3cc(C)[nH]n3)cc(N3CCN(C)CC3)n2)cc1 | Activity (COLO 205 [2]): tde; solubility [3]: 63.4 µg/mL (≈ 140 µM)
2.4 | 23 | 730 | CCC(=O)Nc1ccc(Sc2nc(Nc3cc(C)[nH]n3)cc(N3CCC3)n2)cc1 | –
– | > 40 | > 12000 | Cc1cc(Nc2nc(Sc3ccc4ccccc4c3)nc3ccccc23)n[nH]1 | Ki [7]: > 500 nM; Ki [8]: > 150 nM
– | – | – | CCC(=O)Nc1ccc(Sc2nc(Nc3cc(C)[nH]n3)cc(N3CCNCC3)n2)cc1 | Activity (COLO 205 [2]): tde
< 1 | 145 | 870 | CCC(=O)Nc1ccc(Sc2nc(Nc3cc(C)[nH]n3)cc(-c3ccccc3)n2)cc1 | –
< 1 | 105 | 5770 | CC(=O)N(C)c1ccc(Sc2nc(Nc3cc(C)[nH]n3)c3ccccc3n2)cc1 | Ki [7]: 796 nM
– | – | – | Cc1cc(Nc2cc(N3CCN(C)CC3)nc(Sc3ccc(NC(=O)C4CC4)cc3)n2)[nH]n1 [TOZASERTIB] | solubility [3]: 6.8 µg/mL (≈ 14.6 µM)
– | 575 | – | COc1ccc(Sc2nc(Nc3cc(C)[nH]n3)c3ccccc3n2)cc1 | –
5.1 | 153 | 720 | CCC(=O)Nc1ccc(Sc2nc(C)cc(Nc3cc(C)n[nH]3)n2)cc1 | solubility [3]: 4.2 µg/mL (≈ 11.4 µM)
– | > 1100 | – | Cc1cc(Nc2nc(Sc3ccc(Cl)cc3)nc3ccccc23)n[nH]1 | –
– | 15 | 210 | CC(=O)Nc1ccc(Sc2nc(Nc3cc(C4CC4)[nH]n3)c3ccccc3n2)cc1 | –
– | 185 | – | Cc1cc(Nc2nc(Sc3cccc(Cl)c3)nc3ccccc23)n[nH]1 | –
3.9 | 59 | 1420 | CCC(=O)Nc1ccc(Sc2nc(Nc3cc(C)n[nH]3)cc(C3CC3)n2)cc1 | –
81 | – | – | Cc1cc(Nc2nc(-c3ccncc3)nc3ccccc23)n[nH]1 | Ki [7]: 181 nM; Ki [8]: 73 nM
– | – | – | CCC(=O)Nc1ccc(Sc2nc(Nc3cc(C)[nH]n3)cc(N3CCN(CC)CC3)n2)cc1 | Activity (COLO 205 [2]): tde
– | > 40 | – | Cc1cc(Nc2nc(Sc3ccc(Cl)c(Cl)c3)nc3ccccc23)n[nH]1 | Ki [7]: > 38 nM
– | 445 | – | Cc1cc(Nc2nc(Sc3ccccc3Cl)nc3ccccc23)n[nH]1 | –
